US20060116403A1, “Therapeutic target and uses thereof” (priority 2002, published 2006)
Read-outs that look alike come from different tables or passages of the source.

How the values were obtained:
[1] = test system: vascular smooth muscle cells; assay: 35S-sulphate incorporation into proteoglycans, cAbl siRNA transfection compared with imatinib; assay type: cell-based, human; conditions: culture media
From the text: An independent method is available to examine this question by using molecular biology techniques to block the expression of the mRNA for cAbl and thus reduce the actual level of cAbl mRNA, protein and enzyme activity in the cell. A new technique of post-transcriptional gene silencing known as small inhibitory RNA (or siRNA) has recently been developed in which cells are transfected with an siRNA which leads to the breakdown and loss of the target mRNA in this case cAbl RNA. This is a highly specific technique which complements the pharmacological approach. […] Target sequences for siRNA have been identified from the scanning of the coding region of the human c-Abl gene. Four of these potential sites were selected and compared to a genome database to identify any sequence homology to other genes. Following identification of target sequences, sense and anti-sense siRNA oligonucleotide templates are constructed consisting of 21 nucleotides encoding the siRNA and 8 nucleotides complementary to a promoter primer. […] Both sense and anti-sense siRNA oligonucleotide templates were hybridised to a promoter primer. Double stranded siRNA transcription templates was created by extending the hybridised oligonucleotides using the Klenow fragment of DNA polymerase and RNA polymerase used to transcribe the sense and anti-sense siRNA templates which were then hybridised to dsRNA. […]

cAbl kinase = cAbl kinase (Homo sapiens, UniProt P00519); assay: Direct assay of cAbl kinase activity; assay type: biochemical
Sequence of cAbl kinase (P00519 whole entry): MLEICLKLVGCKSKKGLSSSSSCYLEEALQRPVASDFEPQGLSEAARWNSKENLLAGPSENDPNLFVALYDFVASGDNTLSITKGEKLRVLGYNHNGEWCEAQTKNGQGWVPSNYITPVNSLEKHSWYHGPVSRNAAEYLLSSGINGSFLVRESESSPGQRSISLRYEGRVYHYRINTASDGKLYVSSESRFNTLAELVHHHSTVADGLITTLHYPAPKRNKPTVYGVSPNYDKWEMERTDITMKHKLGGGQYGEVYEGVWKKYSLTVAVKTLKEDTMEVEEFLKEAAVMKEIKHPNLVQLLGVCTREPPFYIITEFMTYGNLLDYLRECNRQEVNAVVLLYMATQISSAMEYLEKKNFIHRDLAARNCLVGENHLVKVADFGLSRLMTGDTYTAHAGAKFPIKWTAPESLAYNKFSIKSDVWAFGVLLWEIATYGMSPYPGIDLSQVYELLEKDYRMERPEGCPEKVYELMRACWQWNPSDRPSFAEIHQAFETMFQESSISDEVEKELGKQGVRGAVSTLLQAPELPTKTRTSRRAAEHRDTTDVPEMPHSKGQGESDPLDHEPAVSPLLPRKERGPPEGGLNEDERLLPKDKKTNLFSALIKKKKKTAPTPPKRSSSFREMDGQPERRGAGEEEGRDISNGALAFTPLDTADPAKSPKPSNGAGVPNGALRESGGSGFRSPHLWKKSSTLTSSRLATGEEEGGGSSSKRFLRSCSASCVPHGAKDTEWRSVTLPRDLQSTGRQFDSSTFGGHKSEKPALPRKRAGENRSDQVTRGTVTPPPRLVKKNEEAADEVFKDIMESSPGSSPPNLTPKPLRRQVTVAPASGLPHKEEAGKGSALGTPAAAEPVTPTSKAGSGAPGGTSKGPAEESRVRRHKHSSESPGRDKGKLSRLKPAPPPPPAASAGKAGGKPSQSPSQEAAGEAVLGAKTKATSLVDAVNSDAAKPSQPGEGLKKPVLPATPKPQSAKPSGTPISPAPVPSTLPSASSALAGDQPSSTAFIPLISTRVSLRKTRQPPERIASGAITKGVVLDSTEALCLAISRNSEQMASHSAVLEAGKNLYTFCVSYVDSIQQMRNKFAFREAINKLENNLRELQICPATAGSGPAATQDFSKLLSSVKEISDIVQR
Method: The direct cAbl kinase inhibitory activity of several compounds was evaluated.

[2] = test system: human vascular smooth muscle cells; assay: Size of proteoglycans and cleaved GAG chains by SDS-PAGE; assay type: cell-based; conditions: for effect on elongation of GAG chains stimulated by PDGF: PDGF treated cells; for effect on size of GAG chains released from proteoglycans, basal: basal (untreated cells); for effect on proteoglycan size (SDS-PAGE): basal and PDGF treated cells, imatinib 1 μM, genistein/daidzein 100 μM
Method: DEAE-Sephacel columns were prepared as previously described 19 and were washed with low salt buffer containing 8 M urea, 0.25 M NaCl, 0.02 M disodium EDTA and 0.5% Triton X-100. The media of 3 identical treatments was pooled and applied to the column. The columns were washed with low salt buffer to remove non-proteoglycan associated radioactivity. Fractions were collected with high salt buffer containing 8 M urea, 3 M NaCl, 0.02 M disodium EDTA and 0.5% Triton X-100.
Samples were prepared for SDS-PAGE by set counts so that the amount of radioactivity applied to the gel was the same for each treatment.
Proteoglycans eluted from DEAE columns and precipitated once with ethanol/potassium acetate solution were treated with sodium borohydride (1 M) in NaOH (50 mM) for 4 h at 45° C. to release the GAG chains. The free GAG chains were precipitated with the ethanol/potassium acetate solution and analyzed for size by SDS-PAGE.
For the estimation of apparent relative masses (MrS) ^14C high molecular weight standards (GIBCO BRL, Grand Island, U.S.A) were run in separate lanes.
The labeled proteoglycans, cleaved chains, xyloside-initiated GAGs and standard proteins were exposed (3 days) to a Fujifilm imaging plate (Fuji Photo Film Co., Japan) and the imaging plate scanned by the Bio-imaging analyzer BAS-1000 MacBas (Fuji Photo Film Co., Japan).

[3] = test system: human vascular smooth muscle cells (internal mammary artery); assay: 35S-sulfate incorporation into total secreted proteoglycans (CPC precipitation); assay type: cell-based; conditions: for inhibition of PDGF-stimulated component of proteoglycan production: imatinib 1 μM, genistein 100 μM
Method: The Human Ethics Committee of the Alfred Hospital and Baker Heart Research Institute approved the acquisition of tissue.
Cells were metabolically labeled with [^35S]-sulfate ([…]) for the final 24 h.
(§1) The culture media were collected and each plate rinsed with Dulbecco's PBS (0.25 ml). Aliquots (50 μl) of the media sample were spotted in duplicate on 30×15 mm rectangles of Whatman® 3M chromatography paper (Aldrich, Milwaukee, U.S.A.). The paper was washed five times in a solution containing cetylpyridinium chloride (CPC, 1% w/v) and NaCl (50 mM). Following air drying at room temperature, the paper from each sample was placed in liquid scintillation fluid (Packard, Groningen, The Netherlands) and radioactivity counted in a Beckman Coulter liquid scintillation analyzer (Fullerton, U.S.A). Counts from cells labeled with [^35S]-sulfate and Tran^35SLabel represented total sulfated GAGs and total core protein respectively.

human LDL [4] = assay: Gel Mobility Shift Assay of core protein labelled proteoglycans binding to human LDL
Method: A new approach to these studies is now used in which the proteoglycan core proteins are metabolically radio-labelled and used to study the binding of human LDL. Cells are incubated with Translabel® (ICN Biochemicals) (^35S-methioinine and cysteine amino acids) and the amino acids are incorporated into the core proteins.
Core protein labelled proteoglycans were isolated by DEAE sepharose ion exchange chromatography and then the binding to human LDL was studied in a Gel Mobility Shift Assay in which a set amount of radiolabeled proteoglycan is incubated with various amounts of LDL and then the bound and free proteoglycans are separated on a flat bed agarose gel.

human LDL [5] = assay: LDL affinity chromatography of radiolabeled proteoglycans; assay type: cell-based; conditions: for effect on increased LDL binding of proteoglycans from PDGF treated cells: PDGF 50 ng/ml, imatinib 1 μM, genistein 100 μM
Method: Human blood samples were obtained from healthy subjects. LDL (d=1.019−1.063 g/ml) was purified from blood by sequential density gradient ultracentrifugation as described by Heinecke, J. W., Baker, L., Rosen, H. & Chait, A. Superoxide-mediated modification of low density lipoprotein by arterial smooth muscle cells. J Clin Invest 77, 757-61 (1986). The interaction of total pooled intact proteoglycan preparations with native human LDL was assessed using LDL affinity chromatography, providing a measure of binding capacity. […] Sepharose was prepared in the presence of excess heparin to protect the GAG binding sites. The columns were washed with HEPES buffer above and then with 1M NaCl to remove heparin. Each sample (80,000 cpm) was applied to a separate column. The columns were washed extensively with low salt buffer then eluted (5×0.5 ml) with 1M NaCl to elute bound proteoglycans. Finally the columns were stripped with high salt, high urea buffer. The aggregate radioactivity retained by the LDL column after extensive washing and eluted with 1M NaCl was determined as the binding capacity for the column.
We observed a 36% increase in the binding capacity of proteoglycans in PDGF treated cells compared to untreated cells (FIG. 5).

[6] = test system: human vascular smooth muscle cells; assay: Xyloside-initiated GAG chain synthesis and size; assay type: cell-based; conditions: xyloside 0.5 mM; for effect on increase in size of GAG chains on xyloside, PDGF: PDGF treated cells
Method: To study glycosaminoglycan (GAG) synthesis, cells were treated with exogenous xyloside which acts as an artificial and alternative substrate for the enzymes which normally catalyze the initiation of GAG chains on the protein core Nigro J et al (2002)) and Moses, J., Oldberg, A. & Fransson, L. A. Initiation of galactosaminoglycan biosynthesis. Separate galactosylation and dephosphorylation pathways for phosphoxylosylated decorin protein and exogenous xyloside. Eur J Biochem 260, 879-84 (1999)) generating free xyloside-initiated GAG chains. β-D-Xylopyranoside (xyloside) (0.5 mM) was prepared in DMEM with FBS (0.1%) and DMSO (0.1%). […] Cells were metabolically labeled with [^35S]-sulfate (50 μCi/well) for 24 hours.
SDS-PAGE gels were prepared following the procedure of Laemelli (Laemmli, U.K. Cleavage of structural proteins during the assembly of the head of bacteriophage T4. Nature 227, 680-5 (1970)) on 4-13% linear gradient separating gels for intact proteoglycans and 4-20% separating gels for cleaved chains and xyloside-initiated GAGs, with a 3.5% stacking gel. For the estimation of apparent relative masses (MrS) ^14C high molecular weight standards (GIBCO BRL, Grand Island, U.S.A) were run in separate lanes.
Cell cultures supplemented with xyloside synthesize the normal family of proteoglycans but also free GAG chains which are synthesized on the xyloside acting as a “false acceptor” for GAG initiation. […] The analysis of the production of the xyloside-initiated GAG chains therefore represents an independent assay of the activity of the GAG elongation process which normally determine the length of GAGs on proteoglycans. […]. GAG chains produced on xyloside are considerably smaller than free GAG chains synthesized on and released from proteoglycans (compare FIG. 2 right panel with FIG. 3 lower panel). The band at the bottom of the SDS-PAGE is the GAG chains initiated on xyloside. Genistein and daidzein have no effect on the size of the GAGs either under basal or PDGF stimulated conditions. […].

[7] = test system: human vascular smooth muscle cells; assay: Proteoglycan core protein synthesis (35S-methionine/cysteine, CPC precipitation); assay type: cell-based
Method: as §1
Effects on core protein biosynthesis can be evaluated by metabolically labeling the cells with labeled amino acids (^35S-methionine/cysteine) and using an isolation technique “CPC precipitation” which is specific for isolating proteoglycans. Thus, cells were treated identically to the above experiments but labeled with ^35S-methionine/cysteine. […]. Core protein biosynthesis was stimulated by PDGF (FIG. 5; […].

[8] = test system: saphenous vein vascular smooth muscle cells; conditions: saphenous vein VSMC
Method: Cultures of vascular smooth muscle cells from human saphenous veins samples obtained (with Ethics approval) from Cardiac Theatres at the Alfred Hospital were prepared.

[9] = test system: vascular smooth muscle cells; assay: Sepharose 6B size exclusion chromatography of cleaved GAG chains; assay type: cell-based, human
K562 cells = assay: Inhibition of K562 cell proliferation; assay type: cell-based
From the text: K562 cells are Philadelphia chromosome tumour cells in which constitutively active cAbl (but possibly other pathways) drive the cell proliferation. […] These cells provide an assay to discriminate inhibition of tyrosine kinases in a whole cell assay.

[10] = test system: vascular smooth muscle cells; conditions: cited from earlier work
[11] = Homo sapiens, 24 h, read-out: inhibition of basal proteoglycan production

Row | Compound | inhibition of cAbl kinase activity (cAbl kinase) | effect on increased LDL binding of proteoglycans from PDGF treated cells (human LDL [5]) | effect on combined production of proteoglycans and xyloside-initiated GAG chains [6] | effect on increase in size of GAG chains on xyloside, PDGF [6] | effect on size of GAG chains on xyloside, basal [6] | effect on PDGF-stimulated core protein biosynthesis [7] | effect on basal proteoglycan core protein biosynthesis [7] | inhibition of PDGF-stimulated component of proteoglycan production ([3]; PDGF 50 ng/ml) | effect on elongation of GAG chains stimulated by PDGF [2] | effect on size of GAG chains released from proteoglycans, basal [2] | effect on proteoglycan size (SDS-PAGE) [2] | other results
1 | siRNA (MB 61): siRNA directed to cAbl; anti-sense template 5′-AAGAAAAACTTCATCCACAGA-3′, sense template 5′-AATCTGTGGATGAAGTTTTTC-3′ (antisense AAGAAAAACTTCATCCACAGA; sense AATCTGTGGATGAAGTTTTTC; chemistry not given here; the letters are possibly those of the target site) |  |  |  |  |  |  |  |  |  |  |  | reduction in 35S-sulphate incorporation, PDGF cells ([1]; PDGF stimulated): 50%; inhibition of radiosulphate incorporation, control cells ([1]; control cells, 24 h): 30-40%
2 | CO[C@H]1[C@@H](OC)C[C@H](C)[C@@H](OC)C2=CC(=O)C=C(NC(=O)/C(C)=C/C=C\[C@H](OC)[C@@H](OC(N)=O)/C(C)=C/[C@@H]1C)C2=O [herbimycin] | little activity |  |  |  |  |  |  |  |  |  |  | inhibition of cAbl kinase activity (cAbl kinase; listed as Herbimycin): no inhibitory activity; effect on size of GAGs on proteoglycan (SDS-PAGE) ([2]; herbimycin): does not reduce; effect on radiosulfate incorporation into proteoglycans ([3]; herbimycin): does not inhibit
3 | Cc1ccc(NC(=O)c2ccc(CN3CCN(C)CC3)cc2)cc1Nc1nccc(-c2cccnc2)n1 [imatinib, 4-[(4-methyl-1-piperazinyl)methyl]-N-[4-methyl-3-[[4-(3-pyridinyl)-2-pyrimidinyl]amino-phenyl]benzamide methanesulfonate] |  | completely abolished | essentially identical | completely prevented | slightly reduced | attenuated | very small but not statistically significant inhibitory effect | totally blocked |  |  |  | decrease in LDL binding affinity (human LDL [4]; basal): three fold; inhibition at 1 µM [3, 11]: 56%; effect on GAG length (SDS-PAGE mobility) [8]: shortens
4 | PDGF: human recombinant platelet derived growth factor-BB, growth factor stimulus |  |  |  |  |  |  |  |  |  |  |  | Kav of cleaved GAG chains, PDGF stimulated [9]: 0.45; half-maximal saturation concentration of LDL, PDGF stimulated cells (human LDL [4]; PDGF stimulated): 25 µg/mL; increase in LDL binding capacity of proteoglycans (human LDL [5]; PDGF treated cells compared to untreated cells): 36%; increase of proteoglycan production ([3]; PDGF 50 ng/ml): approximately two-fold
5 | O=c1c(-c2ccc(O)cc2)coc2cc(O)cc(O)c12 [genistein, 4′,5,7-trihydroxyisoflavone] | little activity | does not prevent | essentially identical | no effect | no effect | attenuated | reduced | less inhibitory than imatinib | no effect | no effect | no effect | potency against cAbl relative to imatinib (times less potent) (cAbl kinase): 160 times; inhibition of K562 cell proliferation (K562 cells): little or no inhibitory activity; effect on total proteoglycan production ([10]; Primate VSMC in culture): inhibited; effect on basal expression of versican mRNA and core protein ([10]; basal): almost completely abolishes; effect on GAG length [10]: no effect; inhibition at 100 µM [3, 11]: 64%; concentration of maximal effect on proteoglycan production ([3]; dose response curves): 100 µM
6 | O=c1c(-c2ccc(O)cc2)coc2cc(O)ccc12 [daidzein, 4′,7-dihydroxyisoflavone] | little activity |  | essentially identical | no effect | no effect | attenuated | considerably less active than genistein |  | no effect | no effect | no effect | inhibition of basal proteoglycan production ([3]; basal, daidzein 100 μM): little inhibitory activity
